# Source: US11597951B2 (Lygos, Inc., priority 2018, dated 2023)
# B1: EHD3 (E124S) (protein, UniProt P28817 1-500, looked up, variant E124S)
# Small ribosomal subunit …: MLRNTLKCAQLSSKYGFKTTTRTFMTTQPQLNVTDAPPVLFTVQDTARVITLNRPKKLNALNAEMSESMFKTLNEYAKSDTTNLVILKSSNRPRSFCAGGDVATVAIFNFNKEFAKSIKFFTDSYSLNFQIATYLKPIVTFMDGITMGGGVGLSIHTPFRIATENTKWAMPEMDIGFFPDVGSTFALPRIVTLANSNSQMALYLCLTGEVVTGADAYMLGLASHYVSSENLDALQKRLGEISPPFNNDPQSAYFFGMVNESIDEFVSPLPKDYVFKYSNEKLNVIEACFNLSKNGTIEDIMNNLRQYEGSAEGKAFAQEIKTKLLTKSPSSLQIALRLVQENSRDHIESAIKRDLYTAANMCMNQDSLVEFSEATKHKLIDKQRVPYPWTKKEQLFVSQLTSITSPKPSLPMSLLRNTSNVTWTQYPYHSKYQLPTEQEIAAYIEKRTNDDTGAKVTEREVLNHFANVIPSRRGKLGIQSLCKIVCERKCEEVNDGLRWK
# Tests used:
# [1] = test system: MdcY-PMdcL based biosensor; experiment: MdcY malonate transcription factor biosensor using exogenously added malonate; type: cell-based, E. coli
# Description: S14 employs the malonate responsive transcription factor, MdcY (SEQ ID NO:3), and the MdcY-responsive promoter, PMdcL (SEQ ID NO:6) derived from Acinetobacter calcoaceticus. This biosensor of this disclosure was constructed using an E. coli vector backbone with ampicillin resistance marker and ColE1 origin of replication; the tetA tetracycline resistance gene was placed under control of the PMdcL promoter.
# Nucleic acids encoding for MdcY and TetA gene products, PMdcL promoter, and the E. coli vector backbone were synthetically produced; the biosensor vectors were than constructed by PCR amplification of the nucleic acids and subsequent cloning into the E. coli vector backbone. The plasmids were transformed into chemically competent E. coli DH10b and the resulting clones plated on LB agar plates containing 50 μg/ml carbenicillin (Cb^50). Individual colonies were grown overnight in 3 ml LB medium supplemented with antibiotic and the sequences of the purified plasmid were verified.
# E. coli strain K12 was co-transformed with plasmids S14 and individual colonies isolated from LB agar plates (Cb^50). Colonies were grown in 25 ml LB broth (Cb^50) until reaching an optical density at 600 nm (OD600) of approximately 0.50, at which point in time cell stocks were prepared and stored at −80° C.; cell stocks were 0.5 ml cell culture and 0.5 ml of a 50% v/v glycerol solution.
# An aliquot of biosensor cell stock was thawed and used to inoculate 50 ml of LB medium (Cb^50) in a 250 ml, baffled Erlenmeyer flask. Cultures were incubated for 2 hours at 37° C.; subsequently, 0.6 ml biosensor culture was added to 48-well plates prepared with 2.3 ml LB medium)(Cb^50) supplemented with tetracycline and malonate acid at the desired concentration (n=4). Plates were than grown at 30° C. on an orbital titer plate shaker. Following 12 hours incubation, 200 μl samples were taken for OD600 measurement.
# [2] = Malonic acid solubility in water; type: physicochemical
# E. coli strain K12 = experiment: In vivo production of malonate in E. coli using S. cerevisiae EHD3 malonyl-CoA hydrolases; type: cell-based
# Method: This example describes the host cells and culture conditions resulting in the in vivo production of malonate using a heterologous EHD3 malonyl-CoA hydrolase in an E. coli host cell. E. coli strain K12 was transformed with vectors containing wild-type EHD3, EHD3 (E124A), […], EHD3 (E124S), EHD3 (E124A, E308V) or an empty vector negative control. Transformants were streaked on LB agar plates (Cm^50, 2% glucose). Following overnight growth at 37° C., individual colonies were inoculated into 3 ml LB (Cm^50, 2% glucose) in a 48-well plate. Cultures were incubated on a plate shaker at 37° C. for 6 hours, at which point each culture was inoculated 1% v/v into M9 minimal medium supplemented with Cm^50 and a mixed carbon source (0.5% glycerol, 0.05% glucose, 0.2% lactose) in a 48-well plate. Cultures were incubated on a plate shaker at 30° C., and a 500 μL sample of the fermentation broth was removed for analysis after 48 hours incubation.
# Samples were centrifuged (×6000 g, 1 min) and the supernatant analyzed for malonate quantification. Chemical standards were prepared in […] of water. The separation of malonate was conducted on a Shimadzu Prominence XR UPLC connected to a refractive index detector and UV detector monitoring 210 nm. Product separation was performed on a Bio-Rad Fermentation Monitoring column. The UPLC was programmed to run isocratically using 5 mM H2504 as the eluant with a flow rate of 600 μL per minute. 10 μL were injected per sample, and the sample plate temperature was held at 4° C. Malonate standards began eluting at […]. […] Malonate concentrations (mg/1) were calculated by comparison to a standard curve prepared from authentic malonate.
# [3] = test system: S. cerevisiae BY4741 yeast cells; experiment: Production of malonate in yeast expressing various malonyl-CoA hydrolases; type: cell-based; details: S. cerevisiae BY4741, SD-Ura, 30° C., 140 h of fermentation; mean±S.D.; n=4
# Description: Nucleic acids encoding various malonyl-CoA hydrolases provided by this disclosure [EHD3 (E124S), B9IZZ9-1, F0PNG8-1, H0NHL7, C3ALI3-1, Q81DR3-1, A4XS22-1, E2XN63-1, A5W8H3-1 and F6AA82-2] were amplified by PCR from plasmids using the primers listed in Table 4. The purified PCR products were cloned downstream of the TEF1 promoter and upstream of the CYC1 terminator in a shuttle vector containing an ampicillin resistance cassette, a PMB1 origin of replication, a CEN/ARS origin of replication and a URA3 selection marker. The resulting plasmids were transformed into E. coli competent host cells and selected on LB agar plates containing Cb^50. Following overnight incubation at 37° C., individual colonies were inoculated in 2 ml of LB-Cb^50 in a 48-well plate and grown for 5 h at 37° C. on a shaker before the plasmids were isolated and confirmed by sequencing.
# S. cerevisiae BY4741 yeast cells were used as host for the vectors for expression of the various malonyl-CoA hydrolases. The plasmid vectors were individually introduced into the yeast host cells using standard procedures. […]
# An individual colony for each transformant picked was inoculated into a 50 μl aliquot of SD-Ura medium in a 96-well plate. […] No malonate was detected in samples consisting of medium not inoculated with yeast cells. […]
# [4] = plasmid S14, tetracycline, 12 hours, 30° C.
Molecule,biosensor response ([1]; cultures harboring S14),"dynamic range (maximum difference in OD600 between fully induced samples and samples absent malonate) [1, 4] [OD600 units]","exogenously added malonate concentration over which an increase in OD600 was observed [1, 4] [mM]",Malonic acid solubility in water ([2]; 5 ° C.),Malonic acid solubility in water ([2]; 10 ° C.),Malonic acid solubility in water ([2]; 15 ° C.),Malonic acid solubility in water ([2]; 20 ° C.),Malonic acid solubility in water ([2]; 25 ° C.),Malonic acid solubility in water ([2]; 30 ° C.),Malonic acid solubility in water ([2]; 35 ° C.),Malonic acid solubility in water ([2]; 40 ° C.),Malonic acid solubility in water ([2]; 45 ° C.),Malonic acid solubility in water ([2]; 50 ° C.),Malonic acid solubility in water ([2]; 55 ° C.),Malonic acid solubility in water ([2]; 60 ° C.),Malonic acid solubility in water ([2]; 65° C.),solubility limit ([2]; 65° C.) [% wt/wt],"malonate production relative to wild-type EHD3 (E. coli strain K12; E. coli K12, 48 hours)","Malonate Concentration (E. coli strain K12; E. coli K12, M9 minimal medium, 30° C., 48 hours, mean±std dev, n=3) [mg/L]",Malonate Peak Area [3]
"O=C(O)CC(=O)O [malonic acid, propanedioic acid]",dose-dependent response,1.2,0.5 to 1,53.92 % (w/w),55.75 % (w/w),57.63 % (w/w),59.68 % (w/w),61.69 % (w/w),63.5 % (w/w),65.28 % (w/w),67.43 % (w/w),68.85 % (w/w),70.33 % (w/w),72.38 % (w/w),74.29 % (w/w),75.96 % (w/w),76,,,
B1,,,,,,,,,,,,,,,,,,"significant (p<0.05, t-test) increase",82.3 ± 7.8,"94,721 ± 8,115"
